Key:
Format in all cases: in vivo
Cyperus esculentus = assay: Pre-emergence herbicidal action, CYPES; design: key: % activity: 100 = plants have died, 0 = like control plants; settings: comparative experiment
Source text: (§1) 1. Pre-Emergence Herbicidal Action Against Harmful Plants Seeds of monocotyledonous and dicotyledonous weed plants and crop plants are laid out in sandy loam soil in wood-fiber pots and covered with soil. The compounds of the invention, formulated in the form of wettable powders (WP) or as emulsion concentrates (EC), are then applied to the surface of the covering soil in the form of an aqueous suspension or emulsion at a water application rate equating to 600 to 800 l/ha, with addition of 0.2% wetting agent. After the treatment, the pots are placed in a greenhouse and kept under good growth conditions for the trial plants. The damage to the test plants is scored visually after a test period of 3 weeks by comparison with untreated controls (herbicidal activity in percent (%): 100% activity=the plants have died, 0% activity=like control plants). […] The tables below illustrate, in an exemplary manner, the […] herbicidal action of the compounds according to the invention, the herbicidal activity being stated in percent. [table] In the experiments that follow, herbicidal action of numerous inventive compounds and the known compounds that are structurally closest from D1 (WO 2012/028579 A1) and D2 (WO 2018/202535 A1) were compared under the above-specified conditions by the pre-emergence and post-emergence method. The example numbers given in the tables relate to the compounds disclosed in the respective documents. In addition to the compounds disclosed in D1 and D2, the following compounds V-1 to V-14 that are encompassed by D1 or D2 but are not compounds specified therein were used in the comparative experiments: • V-1: 2-(methylsulfanyl)-3-(methylsulfinyl)-N-(1-methyl-1H-tetrazol-5-yl)-4-(trifluoromethyl)benzamide • V-2: 2-(methylsulfanyl)-3-(methylsulfonyl)-N-(1-methyl-1H-tetrazol-5-yl)-4-(trifluoromethyl)benzamide • V-3: 2,3-bis(ethylsulfanyl)-N-(1-methyl-1H-tetrazol-5-yl)-4-(trifluoromethyl)benzamide • V-4: 2-chloro-3-(ethylsulfanyl)-N-(1-methyl-1H-tetrazol-5-yl)-4-(trifluoromethyl)benzamide • V-5: 2-chloro-4-iodo-3-(methylsulfanyl)-N-(1-methyl-1H-tetrazol-5-yl)benzamide • V-6: 2-chloro-4-iodo-3-(methylsulfinyl)-N-(1-methyl-1H-tetrazol-5-yl)benzamide • V-7: 2-chloro-4-iodo-3-(methylsulfonyl)-N-(1-methyl-1H-tetrazol-5-yl)benzamide • V-8: 2-bromo-3-(methylsulfanyl)-N-(1-methyl-1H-tetrazol-5-yl)-4-(trifluoromethyl)benzamide • V-9: 2-bromo-3-(methylsulfinyl)-N-(1-methyl-1H-tetrazol-5-yl)-4-(trifluoromethyl)benzamide • V-10: 2-bromo-3-(methylsulfonyl)-N-(1-methyl-1H-tetrazol-5-yl)-4-(trifluoromethyl)benzamide • V-11: 2-bromo-3-(ethylsulfanyl)-N-(1-methyl-1H-tetrazol-5-yl)-4-(trifluoromethyl)benzamide • V-12: 2-bromo-3-(ethylsulfinyl)-N-(1-methyl-1H-tetrazol-5-yl)-4-(trifluoromethyl)benzamide • V-13: 2-bromo-3-(ethylsulfonyl)-N-(1-methyl-1-1H-tetrazol-5-yl)-4-(trifluoromethyl)benzamide • V-14: 2-cyclopropyl-3-(ethylsulfanyl)-N-(1-methyl-1H-tetrazol-5-yl)-4-(trifluoromethyl)benzamide Herbicidal Pre-Emergence Action: […]

Polygonum convolvulus [1] = assay: Post-emergence herbicidal action, POLCO; settings: comparative experiment, post-emergence, 5 g of a.i./ha
Procedure: (§2) [table] 2. Post-Emergence Herbicidal Action Against Harmful Plants Seeds of monocotyledonous and dicotyledonous weed and crop plants are laid out in sandy loam soil in wood-fiber pots, covered with soil and cultivated in a greenhouse under good growth conditions. 2 to 3 weeks after sowing, the test plants are treated at the one-leaf stage. The compounds of the invention, formulated in the form of wettable powders (WP) or as emulsion concentrates (EC), are then sprayed onto the green parts of the plants in the form of an aqueous suspension or emulsion at a water application rate equating to 600 to 800 l/ha, with addition of 0.2% wetting agent. After the test plants have been left to stand in the greenhouse under optimal growth conditions for about 3 weeks, the action of the preparations is assessed visually in comparison to untreated controls (herbicidal action in percent (%): 100% activity=the plants have died, 0% activity=like control plants). […] The tables below illustrate, in an exemplary manner, the post-emergence herbicidal action of the compounds according to the invention, the herbicidal activity being stated in percent. In the experiments that follow, herbicidal action of numerous inventive compounds and the known compounds that are structurally closest from D1 (WO 2012/028579 A1) and D2 (WO 2018/202535 A1) were compared under the above-specified conditions by the pre-emergence and post-emergence method. The example numbers given in the tables relate to the compounds disclosed in the respective documents. In addition to the compounds disclosed in D1 and D2, the following compounds V-1 to V-14 that are encompassed by D1 or D2 but are not compounds specified therein were used in the comparative experiments: • V-1: 2-(methylsulfanyl)-3-(methylsulfinyl)-N-(1-methyl-1H-tetrazol-5-yl)-4-(trifluoromethyl)benzamide • V-2: 2-(methylsulfanyl)-3-(methylsulfonyl)-N-(1-methyl-1H-tetrazol-5-yl)-4-(trifluoromethyl)benzamide • V-3: 2,3-bis(ethylsulfanyl)-N-(1-methyl-1H-tetrazol-5-yl)-4-(trifluoromethyl)benzamide • V-4: 2-chloro-3-(ethylsulfanyl)-N-(1-methyl-1H-tetrazol-5-yl)-4-(trifluoromethyl)benzamide • V-5: 2-chloro-4-iodo-3-(methylsulfanyl)-N-(1-methyl-1H-tetrazol-5-yl)benzamide • V-6: 2-chloro-4-iodo-3-(methylsulfinyl)-N-(1-methyl-1H-tetrazol-5-yl)benzamide • V-7: 2-chloro-4-iodo-3-(methylsulfonyl)-N-(1-methyl-1H-tetrazol-5-yl)benzamide • V-8: 2-bromo-3-(methylsulfanyl)-N-(1-methyl-1H-tetrazol-5-yl)-4-(trifluoromethyl)benzamide • V-9: 2-bromo-3-(methylsulfinyl)-N-(1-methyl-1H-tetrazol-5-yl)-4-(trifluoromethyl)benzamide • V-10: 2-bromo-3-(methylsulfonyl)-N-(1-methyl-1H-tetrazol-5-yl)-4-(trifluoromethyl)benzamide • V-11: 2-bromo-3-(ethylsulfanyl)-N-(1-methyl-1H-tetrazol-5-yl)-4-(trifluoromethyl)benzamide • V-12: 2-bromo-3-(ethylsulfinyl)-N-(1-methyl-1H-tetrazol-5-yl)-4-(trifluoromethyl)benzamide • V-13: 2-bromo-3-(ethylsulfonyl)-N-(1-methyl-1-1H-tetrazol-5-yl)-4-(trifluoromethyl)benzamide • V-14: 2-cyclopropyl-3-(ethylsulfanyl)-N-(1-methyl-1H-tetrazol-5-yl)-4-(trifluoromethyl)benzamide Herbicidal Pre-Emergence Action: […]

Polygonum convolvulus [2] = assay: Pre-emergence herbicidal action, POLCO; settings: for Herbicidal action against POLCO: comparative experiment, 20 g of a.i./ha
Source text: as §1

Echinochloa crus-galli [3] = assay: Pre-emergence herbicidal action, ECHCG; settings: for pest or weed control at 20 g/ha: 20 g of a.i./ha
Method in brief: (§3)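 Application took place on the soil surface immediately after sowing into sandy loam, using aqueous WP or EC preparations with 0.2% wetting agent. Visual percent scoring followed 3 weeks later, untreated pots serving as reference.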

Abutilon theophrasti [4] = assay: Pre-emergence herbicidal action, ABUTH; design: key to Herbicidal action against ABUTH: % activity: 100 = plants have died, 0 = like control plants; settings: for Herbicidal action against ABUTH: comparative experiment
Method in brief: as §3

Amaranthus retroflexus [5] = assay: Pre-emergence herbicidal action, AMARE; design: key to Herbicidal action against AMARE: % activity: 100 = plants have died, 0 = like control plants; settings: for Herbicidal action against AMARE: comparative experiment
Method in brief: as §3

Pharbitis purpurea [6] = assay: Pre-emergence herbicidal action, PHBPU; settings: comparative experiment, 20 g of a.i./ha
Source text: as §1

Matricaria inodora [7] = assay: Pre-emergence herbicidal action, MATIN; settings: dosage 320 g/ha, scored visually after 3 weeks vs untreated controls (100% = plants have died)
Method in brief: as §3

Abutilon theophrasti [8] = assay: Post-emergence herbicidal action, ABUTH; design: key: % herbicidal action vs untreated; 100 = plants died, 0 = like control; settings: post-emergence
Method in brief: (§4)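 After sowing into sandy loam, plants grew 2 to 3 weeks under greenhouse conditions until one leaf, then got a spray of compound as aqueous suspension or emulsion. Roughly three weeks on, activity was estimated visually against untreated pots.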

Stellaria media [9] = assay: Pre-emergence herbicidal action, STEME; settings: dosage 320 g/ha, scored visually after 3 weeks vs untreated controls (100% = plants have died)
Method in brief: as §3

Viola tricolor [10] = assay: Pre-emergence herbicidal action, VIOTR; design: key to Herbicidal action against VIOTR: % activity: 100 = plants have died, 0 = like control plants
Method in brief: as §3

Echinochloa crus-galli [11] = assay: Post-emergence herbicidal action, ECHCG; design: key: % herbicidal action vs untreated; 100 = plants died, 0 = like control; settings: post-emergence, dosage 80 g/ha
Method in brief: as §4

Hordeum murinum = assay: Pre-emergence herbicidal action, HORMU; settings: dosage 320 g/ha, scored visually after 3 weeks vs untreated controls (100% = plants have died)
Source text: as §1

Pharbitis purpurea [12] = assay: Post-emergence herbicidal action, PHBPU; settings: post-emergence, dosage 80 g/ha
Method in brief: as §4

Matricaria inodora [13] = assay: Post-emergence herbicidal action, MATIN; design: key: % herbicidal action vs untreated; 100 = plants died, 0 = like control; settings: post-emergence, dosage 80 g/ha
Method in brief: as §4

Amaranthus retroflexus [14] = assay: Post-emergence herbicidal action, AMARE; design: key: % herbicidal action vs untreated; 100 = plants died, 0 = like control; settings: post-emergence, dosage 80 g/ha
Method in brief: as §4

Setaria viridis [15] = assay: Post-emergence herbicidal action, SETVI; design: key: % herbicidal action vs untreated; 100 = plants died, 0 = like control; settings: post-emergence
Method in brief: as §4

Setaria viridis [16] = assay: Pre-emergence herbicidal action, SETVI; design: key to Herbicidal action against SETVI: % activity: 100 = plants have died, 0 = like control plants
Source text: as §1

Veronica persica [17] = assay: Pre-emergence herbicidal action, VERPE; design: key to Herbicidal action against VERPE: % activity: 100 = plants have died, 0 = like control plants; settings: comparative experiment, 80 g of a.i./ha
Method in brief: as §3

Avena fatua = assay: Post-emergence herbicidal action, AVEFA; design: key: % herbicidal action vs untreated; 100 = plants died, 0 = like control; settings: comparative experiment, post-emergence, 20 g of a.i./ha
Procedure: as §2

Viola tricolor [18] = assay: Post-emergence herbicidal action, VIOTR; design: key: % herbicidal action vs untreated; 100 = plants died, 0 = like control; settings: comparative experiment, post-emergence, 20 g of a.i./ha
Method in brief: as §4

Alopecurus myosuroides = assay: Post-emergence herbicidal action, ALOMY; design: key: % herbicidal action vs untreated; 100 = plants died, 0 = like control; settings: comparative experiment, post-emergence, 20 g of a.i./ha
Procedure: as §2

Stellaria media [19] = assay: Post-emergence herbicidal action, STEME; design: key: % herbicidal action vs untreated; 100 = plants died, 0 = like control; settings: comparative experiment, post-emergence, 20 g of a.i./ha
Method in brief: as §4

Veronica persica [20] = assay: Post-emergence herbicidal action, VERPE; design: key: % herbicidal action vs untreated; 100 = plants died, 0 = like control; settings: comparative experiment, post-emergence, 20 g of a.i./ha
Method in brief: as §4

[21] = Echinochloa crus-galli, 504 h, comparative experiment, read-out: Herbicidal action against ECHCG
[22] = dosage 320 g/ha, scored visually after 3 weeks vs untreated controls (100% = plants have died)
[23] = comparative experiment, 20 g of a.i./ha
[24] = comparative experiment, 80 g of a.i./ha

CSc1c(C(=O)Nc2nnnn2C)ccc(C(F)(F)F)c1S(C)(=O)=O [Example V-2, 2-(methylsulfanyl)-3-(methylsulfonyl)-N-(1-methyl-1H-tetrazol-5-yl)-4-(trifluoromethyl)benzamide, reference compound]
Herbicidal action against CYPES (Cyperus esculentus; 20 g of a.i./ha): 0 | Herbicidal action against POLCO (Polygonum convolvulus [1]): 0 | Herbicidal action against POLCO (Polygonum convolvulus [2]): 0 | pest or weed control at 20 g/ha (Echinochloa crus-galli [3]; [21]): 50%

CSc1c(C(=O)Nc2nnnn2C)ccc(C(F)(F)F)c1[S+](C)[O-] (stereo not shown) [Example V-1, 2-(methylsulfanyl)-3-(methylsulfinyl)-N-(1-methyl-1H-tetrazol-5-yl)-4-(trifluoromethyl)benzamide, reference compound]
Herbicidal action against CYPES (Cyperus esculentus; 20 g of a.i./ha): 50 | Herbicidal action against ABUTH (Abutilon theophrasti [4]; 20 g of a.i./ha): 0 | Herbicidal action against AMARE (Amaranthus retroflexus [5]; 20 g of a.i./ha): 60 | Herbicidal action against POLCO (Polygonum convolvulus [2]): 0 | Herbicidal action against PHBPU (Pharbitis purpurea [6]): 0 | pest or weed control at 20 g/ha (Echinochloa crus-galli [3]; [21]): 50%

CSc1c(C(F)(F)F)ccc(C(=O)Nc2nnnn2C)c1Br [Example V-8, 2-bromo-3-(methylsulfanyl)-N-(1-methyl-1H-tetrazol-5-yl)-4-(trifluoromethyl)benzamide, reference compound]
Herbicidal action against CYPES (Cyperus esculentus; 20 g of a.i./ha): 0

CCn1nnnc1NC(=O)c1ccc(I)c(CSC)c1Cl [Example 2-362]
herbicidal activity MATIN (Matricaria inodora [7]): 100% | Herbicidal action against ABUTH (Abutilon theophrasti [8]; dosage 80 g/ha): 90 | herbicidal activity STEME (Stellaria media [9]): 100% | herbicidal activity VIOTR (Viola tricolor [10]; [22]): 100% | Herbicidal action against ECHCG (Echinochloa crus-galli [11]): 100 | herbicidal activity HORMU (Hordeum murinum): 90% | Herbicidal action against PHBPU (Pharbitis purpurea [12]): 90 | herbicidal activity ABUTH (Abutilon theophrasti [4]; [22]): 100% | Herbicidal action against MATIN (Matricaria inodora [13]): 100 | herbicidal activity AMARE (Amaranthus retroflexus [5]; [22]): 100% | Herbicidal action against AMARE (Amaranthus retroflexus [14]): 100 | Herbicidal action against SETVI (Setaria viridis [15]; dosage 80 g/ha): 90 | herbicidal activity POLCO (Polygonum convolvulus [2]; [22]): 100% | herbicidal activity ECHCG (Echinochloa crus-galli [3]; [22]): 100% | herbicidal activity SETVI (Setaria viridis [16]; [22]): 100%

CCSc1c(C(F)(F)F)ccc(C(=O)Nc2nnnn2C)c1Br [Example V-11, 2-bromo-3-(ethylsulfanyl)-N-(1-methyl-1H-tetrazol-5-yl)-4-(trifluoromethyl)benzamide, reference compound]
Herbicidal action against ABUTH (Abutilon theophrasti [8]; [23]): 0 | Herbicidal action against CYPES (Cyperus esculentus; 80 g of a.i./ha): 0 | Herbicidal action against VIOTR (Viola tricolor [10]; [24]): 80 | Herbicidal action against VERPE (Veronica persica [17]): 10 | Herbicidal action against ABUTH (Abutilon theophrasti [4]; 80 g of a.i./ha): 0 | Herbicidal action against AVEFA (Avena fatua): 0 | Herbicidal action against VIOTR (Viola tricolor [18]): 20 | Herbicidal action against AMARE (Amaranthus retroflexus [5]; 80 g of a.i./ha): 0 | Herbicidal action against SETVI (Setaria viridis [15]; [23]): 0 | Herbicidal action against ALOMY (Alopecurus myosuroides): 0 | Herbicidal action against STEME (Stellaria media [19]): 0 | Herbicidal action against VERPE (Veronica persica [20]): 40 | pest or weed control at 80 g/ha (Echinochloa crus-galli [3]; Echinochloa crus-galli, 504 h, comparative experiment, 80 g of a.i./ha, read-out: Herbicidal action against ECHCG): 0% | Herbicidal action against SETVI (Setaria viridis [16]; [24]): 0

Source: patent US12492173B2, “Herbicidal substituted N-tetrazolyl aryl carboxamides” (Bayer Aktiengesellschaft, priority 2019, dated 2025)
